Read-outs that look alike come from different tables or passages of the source. Numbered stars: 1 amine (or outer) side, 2 acyl side, 3 side chain; on linkers, the order of the positions; unused ones are H or OH. Bridge positions count the residues as written; N and C are the ends. Peptide text beside a SMILES is read from it. * marks the point of attachment. 5FAM = O=C1OC2(c3ccc(O)cc3Oc3cc(O)ccc32)c2ccc(C(=O)*)cc21; X1 = O=C(O)c1cc(C(=O)*)ccc1-c1c2ccc(=O)cc-2oc2cc(O)ccc12; CH2COCH2 = O=C(C[*:1])C[*:2]
How the values were obtained:
[1] = target: T1, calprotectin tetramer (recombinant B-RCAL, His6-linker-S100A9-linker-S100A8) (Homo sapiens, UniProt P05109); assay: Fluorescence polarization (FP) binding to recombinant calprotectin B-RCAL tetramer in presence of CaCl2; conditions: for effect of mutation to alanine on binding: alanine scan of linear peptide 3, found via FP and SPR
T1 construct: we used the recombinant protein without removing the His-tag or cleaving the 8-amino acid linker between the two proteins; co-authors' company
T1 sequence (P05109 with tags, fused parts or gaps): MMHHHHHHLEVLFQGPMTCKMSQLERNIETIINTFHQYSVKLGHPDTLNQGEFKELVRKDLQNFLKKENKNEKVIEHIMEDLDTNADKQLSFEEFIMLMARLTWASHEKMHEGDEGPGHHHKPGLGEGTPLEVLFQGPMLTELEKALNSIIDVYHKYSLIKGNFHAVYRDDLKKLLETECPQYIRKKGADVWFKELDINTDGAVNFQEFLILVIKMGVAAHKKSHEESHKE
Experimental: Calprotectin was serially diluted in 20 mM HEPES, 100 mM NaCl, 2 mM CaCl2, pH 7.5, and 1 mM DTT with 0.01% (v/v) Tween-20. Volumes of 16 μL of protein were added to 4 μL of fluorescent peptide (20 nM final concentration) in black 384-well microtiter plates. Fluorescence anisotropy was measured on a microwell plate reader (Infinite M200Pro, Tecan) with filters for excitation at 485 nm and emission at 535 nm. The dissociation constant (Kd) was calculated using a following Eq. (1) using Prism 5 software (GraphPad):1 A=Af+Ab−Af×LT+KD+PT−LT+KD+PT^2−4LTPT/2LT where A is anisotropy, Af and Ab are the anisotropy values for free and bound ligands, respectively. [L]T is the concentration of the total fluorescent ligand and [P]T the concentration of the protein.

[2] = target: T2, native calprotectin (tetramer, + CaCl2) (Homo sapiens, UniProt P05109+P06702); assay: FP binding to native calprotectin derived from granulocytes
T2 construct: Native calprotectin is derived from granulocytes; tissue gift from Thomas Vogl, Institute of Immunology, University of Muenster; host or cells: granulocytes
T2 sequence (P05109 1-93): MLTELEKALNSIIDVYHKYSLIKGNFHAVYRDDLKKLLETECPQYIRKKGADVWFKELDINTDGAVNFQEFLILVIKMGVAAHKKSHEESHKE
T2 sequence (P06702 2-114 limits assumed): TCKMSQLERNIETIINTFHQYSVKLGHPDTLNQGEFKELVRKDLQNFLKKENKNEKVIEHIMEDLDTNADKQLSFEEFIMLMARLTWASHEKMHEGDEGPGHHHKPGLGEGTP
Experimental: Fluorescence anisotropy was measured on a microwell plate reader (Infinite M200Pro, Tecan) with filters for excitation at 485 nm and emission at 535 nm. The dissociation constant (Kd) was calculated using a following Eq. […] [L]T is the concentration of the total fluorescent ligand and [P]T the concentration of the protein. Native calprotectin is derived from granulocytes (kind gift from Thomas Vogl, Institute of Immunology, University of Muenster) and was purified as described in ref. [34]. The size and concentration was analyzed and compared to B-RCAL by standard SDS-PAGE.

[3] = target: T3, calprotectin tetramer (recombinant B-RCAL) (Homo sapiens, UniProt P05109); assay: biochemical
T3 sequence (P05109 with tags, fused parts or gaps): T1 sequence (P05109 with tags, fused parts or gaps)
Experimental: SPR measurements were performed using a Biacore^TM 8 K instrument (GE Healthcare) using the Biacore^TM 8 K Control software. Recombinant calprotectin (B-RCAL) was diluted with 10 mM acetate buffer (pH 5.0) to reach a concentration of 5 μg/mL and immobilized on a CM5 series S chip using the standard amine coupling method in running buffer (10 mM HEPES pH 7.4, 150 mM NaCl, 2 mM CaCl2, and 0.005% v/v Tween-20) at 25 °C and the following procedure. At a flow of 10 μL/min, the following solutions were injected: 420 s 0.4 M EDC, 0.1 M NHS; 100 to 200 s protein; 500 s 1 M ethanolamine-HCl pH 8.5. Typical immobilization levels were 3000 resonance units (RUs). A reference cell was treated in the same way but without the injection of protein. A single concentration for each peptide (500 nM) was injected in a running buffer containing 0.5% (v/v) DMSO to measure the binding level. For the measurement of binding kinetics and dissociation constants, five serial dilutions (threefold) of peptides were prepared in running buffer containing 0.5% (v/v) DMSO and analyzed in single cycle kinetics mode with the contact and dissociation times of 90 s and 120 s, respectively. Data were analyzed using Biacore^TM 8 K Evaluation software.

[4] = Methionine oxidation of peptide upon storage in solution; type: physicochemical
[5] = target: T3, calprotectin tetramer (recombinant B-RCAL); assay: SPR binding level at a single peptide concentration (500 nM); parameters: we used the recombinant protein without removing the His-tag or cleaving the 8-amino acid linker between the two proteins; co-authors' company; conditions: peptides injected at 500 nM, single measurement
Text: Typical immobilization levels were 3000 resonance units (RUs).

[6] = FP, alanine scan of linear peptide 3, 20 nM peptide, 2 mM CaCl2, one measurement, NB = non-binding

Compound	effect of mutation to alanine on binding [1]	Response at binding [5] [RU]	also measured
CSCC[C@H](NC(=O)[C@@H]1CCCN1C(=O)[C@H](Cc1ccccc1)NC(=O)[C@H](C)NC(=O)[C@@H](NC(=O)[C@@H]1CSCC(=O)CSC[C@H](NC(=O)[C@H](CCCNC(=N)N)NC(=O)c2ccc3c(c2)C(=O)OC32c3ccc(O)cc3Oc3cc(O)ccc32)C(=O)N2CCC[C@H]2C(=O)N[C@@H](CCC(=O)O)C(=O)N1)C(C)C)C(=O)N[C@@H](Cc1ccccc1)C(=O)N[C@@H](CCC(N)=O)C(=O)N[C@H]1CSCC(=O)CSC[C@@H](C(=O)NCC(N)=O)NC(=O)[C@H](Cc2ccc(O)cc2)NC(=O)[C@H](Cc2c[nH]c3ccccc23)NC(=O)[C@H](Cc2c[nH]cn2)NC1=O (single isomer, unassigned) [Peptide 3 Isomer 1]			Kd [1]: 24 ± 10 nM; Kd [2]: 26 ± 2 nM; Kd [3]: 51 nM
CSCC[C@H](NC(=O)[C@@H]1CCCN1C(=O)[C@H](Cc1ccccc1)NC(=O)[C@H](C)NC(=O)[C@@H](NC(=O)[C@@H]1CSCC(=O)CSC[C@H](NC(=O)[C@H](CCCNC(=N)N)NC(=O)c2ccc(-c3c4ccc(=O)cc-4oc4cc(O)ccc34)c(C(=O)O)c2)C(=O)N2CCC[C@H]2C(=O)N[C@@H](CCC(=O)O)C(=O)N1)C(C)C)C(=O)N[C@@H](Cc1ccccc1)C(=O)N[C@@H](CCC(N)=O)C(=O)N[C@H]1CSCC(=O)CSC[C@@H](C(=O)NCC(N)=O)NC(=O)[C@H](Cc2ccc(O)cc2)NC(=O)[C@H](Cc2c[nH]c3ccccc23)NC(=O)[C@H](Cc2c[nH]cn2)NC1=O [Peptide 3] (X1-RCPECVAFPMFQCHWYCG-NH2; linker 2-5, 13-17 via CH2COCH2)			oxidation upon storage in solution [4]: a small quantity was oxidized; Kd ([1]; FP, 20 nM peptide, 2 mM CaCl2, Rep 1): 20 nM; FP increase upon binding to calprotectin ([1]; FP, 2 mM CaCl2): around 50%
CSCC[C@H](NC(=O)[C@@H]1CCCN1C(=O)[C@H](C)NC(=O)[C@H](C)NC(=O)[C@@H](NC(=O)[C@H](CO)NC(=O)[C@H](CCC(=O)O)NC(=O)[C@@H]1CCCN1C(=O)[C@H](CO)NC(=O)[C@H](CCCNC(=N)N)NC(=O)c1ccc2c(c1)C(=O)OC21c2ccc(O)cc2Oc2cc(O)ccc21)C(C)C)C(=O)N[C@@H](Cc1ccccc1)C(=O)N[C@@H](CCC(N)=O)C(=O)N[C@@H](CO)C(=O)N[C@@H](Cc1c[nH]cn1)C(=O)N[C@@H](Cc1c[nH]c2ccccc12)C(=O)N[C@@H](Cc1ccc(O)cc1)C(=O)N[C@@H](CO)C(=O)NCC(N)=O [Peptide F8A] (5FAM-RSPESVAAPMFQSHWYSG-NH2)	complete loss in binding	-0.0133	
CSCC[C@H](NC(=O)[C@@H]1CCCN1C(=O)[C@H](Cc1ccccc1)NC(=O)[C@H](C)NC(=O)[C@@H](NC(=O)[C@H](CO)NC(=O)[C@H](CCC(=O)O)NC(=O)[C@@H]1CCCN1C(=O)[C@H](CO)NC(=O)[C@H](CCCNC(=N)N)NC(=O)c1ccc2c(c1)C(=O)OC21c2ccc(O)cc2Oc2cc(O)ccc21)C(C)C)C(=O)N[C@@H](C)C(=O)N[C@@H](CCC(N)=O)C(=O)N[C@@H](CO)C(=O)N[C@@H](Cc1c[nH]cn1)C(=O)N[C@@H](Cc1c[nH]c2ccccc12)C(=O)N[C@@H](Cc1ccc(O)cc1)C(=O)N[C@@H](CO)C(=O)NCC(N)=O [Peptide F11A] (5FAM-RSPESVAFPMAQSHWYSG-NH2)	complete loss in binding	-1.75	
CSCC[C@H](NC(=O)[C@@H]1CCCN1C(=O)[C@H](Cc1ccccc1)NC(=O)[C@H](C)NC(=O)[C@@H](NC(=O)[C@H](CO)NC(=O)[C@H](CCC(=O)O)NC(=O)[C@@H]1CCCN1C(=O)[C@H](CO)NC(=O)[C@H](CCCNC(=N)N)NC(=O)c1ccc2c(c1)C(=O)OC21c2ccc(O)cc2Oc2cc(O)ccc21)C(C)C)C(=O)N[C@@H](Cc1ccccc1)C(=O)N[C@@H](CCC(N)=O)C(=O)N[C@@H](CO)C(=O)N[C@@H](C)C(=O)N[C@@H](Cc1c[nH]c2ccccc12)C(=O)N[C@@H](Cc1ccc(O)cc1)C(=O)N[C@@H](CO)C(=O)NCC(N)=O [Peptide H14A] (5FAM-RSPESVAFPMFQSAWYSG-NH2)	complete loss in binding	10	
CC(C)[C@H](NC(=O)[C@H](CO)NC(=O)[C@H](CCC(=O)O)NC(=O)[C@@H]1CCCN1C(=O)[C@H](CO)NC(=O)[C@H](CCCNC(=N)N)NC(=O)c1ccc2c(c1)C(=O)OC21c2ccc(O)cc2Oc2cc(O)ccc21)C(=O)N[C@@H](C)C(=O)N[C@@H](Cc1ccccc1)C(=O)N1CCC[C@H]1C(=O)N[C@@H](C)C(=O)N[C@@H](Cc1ccccc1)C(=O)N[C@@H](CCC(N)=O)C(=O)N[C@@H](CO)C(=O)N[C@@H](Cc1c[nH]cn1)C(=O)N[C@@H](Cc1c[nH]c2ccccc12)C(=O)N[C@@H](Cc1ccc(O)cc1)C(=O)N[C@@H](CO)C(=O)NCC(N)=O [Peptide M10A] (5FAM-RSPESVAFPAFQSHWYSG-NH2)	complete loss in binding	7	
CSCC[C@H](NC(=O)[C@@H]1CCCN1C(=O)[C@H](Cc1ccccc1)NC(=O)[C@H](C)NC(=O)[C@H](C)NC(=O)[C@H](CO)NC(=O)[C@H](CCC(=O)O)NC(=O)[C@@H]1CCCN1C(=O)[C@H](CO)NC(=O)[C@H](CCCNC(=N)N)NC(=O)c1ccc2c(c1)C(=O)OC21c2ccc(O)cc2Oc2cc(O)ccc21)C(=O)N[C@@H](Cc1ccccc1)C(=O)N[C@@H](CCC(N)=O)C(=O)N[C@@H](CO)C(=O)N[C@@H](Cc1c[nH]cn1)C(=O)N[C@@H](Cc1c[nH]c2ccccc12)C(=O)N[C@@H](Cc1ccc(O)cc1)C(=O)N[C@@H](CO)C(=O)NCC(N)=O [Peptide V6A] (5FAM-RSPESAAFPMFQSHWYSG-NH2)			Kd [1, 6]: 39 nM
CSCC[C@H](NC(=O)[C@@H]1CCCN1C(=O)[C@H](Cc1ccccc1)NC(=O)[C@H](C)NC(=O)[C@@H](NC(=O)[C@H](CO)NC(=O)[C@H](CCC(=O)O)NC(=O)[C@@H]1CCCN1C(=O)[C@H](CO)NC(=O)[C@H](CCCNC(=N)N)NC(=O)c1ccc2c(c1)C(=O)OC21c2ccc(O)cc2Oc2cc(O)ccc21)C(C)C)C(=O)N[C@@H](Cc1ccccc1)C(=O)N[C@@H](CCC(N)=O)C(=O)N[C@@H](CO)C(=O)N[C@@H](Cc1c[nH]cn1)C(=O)N[C@@H](C)C(=O)N[C@@H](Cc1ccc(O)cc1)C(=O)N[C@@H](CO)C(=O)NCC(N)=O [Peptide W15A] (5FAM-RSPESVAFPMFQSHAYSG-NH2)			Kd [1, 6]: 24 nM
CSCC[C@H](NC(=O)[C@@H]1CCCN1C(=O)[C@H](Cc1ccccc1)NC(=O)[C@H](C)NC(=O)[C@@H](NC(=O)[C@H](CO)NC(=O)[C@H](CCC(=O)O)NC(=O)[C@@H]1CCCN1C(=O)[C@H](CO)NC(=O)[C@H](CCCNC(=N)N)NC(=O)c1ccc2c(c1)C(=O)OC21c2ccc(O)cc2Oc2cc(O)ccc21)C(C)C)C(=O)N[C@@H](Cc1ccccc1)C(=O)N[C@@H](CCC(N)=O)C(=O)N[C@@H](CO)C(=O)N[C@@H](Cc1c[nH]cn1)C(=O)N[C@@H](Cc1c[nH]c2ccccc12)C(=O)N[C@@H](C)C(=O)N[C@@H](CO)C(=O)NCC(N)=O [Peptide Y16A] (5FAM-RSPESVAFPMFQSHWASG-NH2)	complete loss in binding	6	
